Target: T1, Urotensin-2 receptor (Rattus norvegicus, UniProt P49684)
T1 sequence (P49684 whole entry): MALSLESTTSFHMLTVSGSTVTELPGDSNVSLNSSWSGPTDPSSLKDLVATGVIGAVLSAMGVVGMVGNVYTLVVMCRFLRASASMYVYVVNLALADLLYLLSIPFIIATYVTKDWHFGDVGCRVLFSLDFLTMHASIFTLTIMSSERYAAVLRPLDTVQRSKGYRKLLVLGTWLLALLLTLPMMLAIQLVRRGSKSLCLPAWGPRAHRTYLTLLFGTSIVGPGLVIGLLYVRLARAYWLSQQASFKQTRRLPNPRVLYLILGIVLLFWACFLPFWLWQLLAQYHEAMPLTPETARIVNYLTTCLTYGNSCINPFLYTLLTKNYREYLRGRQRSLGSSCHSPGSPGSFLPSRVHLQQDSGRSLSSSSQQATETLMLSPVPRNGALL

Ki: 1470 nM
Compound: Cc1cc(NC(=O)NCCN2CCC(O)(Cc3ccccc3)CC2)c2ccccc2n1 [ACT-058362]
